# Patent publication US20110312961A1, “2,5-Disubstituted Morpholine Orexin REceptor Antagonists” (priority 2008, published 2011)
# Key:
# Sprague-Dawley rats = assay: Complete Freund's adjuvant (CFA)-induced thermal hyperalgesia; assay type: in vivo, rat; details: 0.1, 1 or 10 mg/kg s.c., 1 hour post-dose, vs vehicle
# Description: Injection of complete Freund's adjuvant (CFA) in rats is commonly used to evaluate compounds with potential for use as drugs in treatment of mono-arthritis (osteo-arthritis) and other inflammatory conditions. Signs of hyperalgesia develop within 24 h (Schaible and Grubb, 1993).
# (2S,3R)—N-2-((3-pyridinyl)methyl)-1-azabicyclo[2.2.2]oct-3-yl)-3,5-difluorobenzamide was evaluated for possible analgesia effect in the CFA-induced thermal hyperalgesia test in rats using methods similar to those described by Walker and colleagues (2003). Briefly, adult male Sprague-Dawley rats (BioLasco, Taiwan) weighing 180±20 g on receipt were randomly assigned to treatment groups of n=8 per group. Animals each received a sub plantar injection (0.1 mL) of CFA (DIFCO, 264010; 0.1% solution) to the right hind paw at 24 h prior to experimental testing. Thermal hyperalgesia was tested using a Paw/Tail stimulator analgesia meter (IITC Model-336G, IITC, USA) with a thermally regulated glass floor set at 30° C. […] The time required for the animal to withdraw the paw from the thermal stimulus was automatically recorded. […]
# Twenty-four hours after CFA injection, subjects were pre-selected (for clear presence of thermal hyperalgesia) for experimentation only if the latency to withdrawal was less than 75% of the baseline. […] The post-treatment level of thermal hyperalgesia was then measured at 60 minutes post-treatment. […]
# [1] = biological target: T1, rat native α4β2 receptors (Rattus norvegicus, UniProt P09483+P12390); assay: Radioligand binding, rat cortex membranes (α4β2); details: read-out: Ki, inhibition of [3H]epibatidine binding to rat native α4β2 receptors
# T1 construct: rat native α4β2 receptors; from tissue; host or cells: rat (female Sprague-Dawley) cerebral cortex membranes
# T1 sequence (P09483 31-630): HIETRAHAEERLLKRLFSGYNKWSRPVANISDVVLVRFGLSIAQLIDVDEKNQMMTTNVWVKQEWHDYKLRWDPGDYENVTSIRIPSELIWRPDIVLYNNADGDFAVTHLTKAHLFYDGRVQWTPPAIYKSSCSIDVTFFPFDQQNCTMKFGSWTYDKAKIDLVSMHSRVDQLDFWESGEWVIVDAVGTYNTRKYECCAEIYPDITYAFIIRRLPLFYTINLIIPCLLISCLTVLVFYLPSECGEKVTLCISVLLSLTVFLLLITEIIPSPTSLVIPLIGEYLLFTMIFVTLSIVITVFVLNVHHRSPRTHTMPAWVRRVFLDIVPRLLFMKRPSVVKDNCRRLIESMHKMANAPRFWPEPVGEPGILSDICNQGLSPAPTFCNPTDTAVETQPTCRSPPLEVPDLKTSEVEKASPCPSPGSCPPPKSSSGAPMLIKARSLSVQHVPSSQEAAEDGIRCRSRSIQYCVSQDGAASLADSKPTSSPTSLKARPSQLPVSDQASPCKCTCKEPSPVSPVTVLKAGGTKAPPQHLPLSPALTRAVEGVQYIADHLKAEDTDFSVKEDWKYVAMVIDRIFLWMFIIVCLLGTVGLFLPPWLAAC
# T1 sequence (P12390 25-500): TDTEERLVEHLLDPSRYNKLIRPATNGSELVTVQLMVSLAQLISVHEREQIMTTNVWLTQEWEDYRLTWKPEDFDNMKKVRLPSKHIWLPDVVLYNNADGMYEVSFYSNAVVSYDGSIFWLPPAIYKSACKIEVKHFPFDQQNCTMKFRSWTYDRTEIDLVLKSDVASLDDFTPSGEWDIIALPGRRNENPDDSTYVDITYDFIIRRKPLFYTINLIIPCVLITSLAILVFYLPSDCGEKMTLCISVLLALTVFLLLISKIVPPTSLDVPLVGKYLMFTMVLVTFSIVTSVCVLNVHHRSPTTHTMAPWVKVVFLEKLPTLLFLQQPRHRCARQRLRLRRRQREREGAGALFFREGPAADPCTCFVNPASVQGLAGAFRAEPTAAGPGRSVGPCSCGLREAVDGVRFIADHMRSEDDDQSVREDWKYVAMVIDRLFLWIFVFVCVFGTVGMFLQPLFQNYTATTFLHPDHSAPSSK
# Description: Preparation of Membranes from Rat Cortex: Rats (Female, Sprague-Dawley), weighing 150-250 g, were maintained on a 12 h light/dark cycle and were allowed free access to water and food supplied by PMI Nutrition International, Inc. Animals were anesthetized with 70% CO2, and then decapitated. Brains were removed and placed on an ice-cold platform. The cerebral cortex was removed and placed in 20 volumes (weight:volume) of ice-cold preparative buffer (137 mM NaCl, 10.7 mM KCl, 5.8 mM KH2PO4, 8 mM Na2HPO4, 20 mM HEPES (free acid), 5 mM iodoacetamide, 1.6 mM EDTA, pH 7.4); PMSF, dissolved in methanol to a final concentration of 100 μM, was added and the suspension was homogenized by Polytron. […]
# On the day of the assay, the frozen membranes were thawed and spun at 48,000×g for 20 min. […] Protein concentrations were determined using a Pierce BCA Protein Assay Kit, with bovine serum albumin as the standard (Pierce Chemical Company, Rockford, Ill.).
# […] Filters were then counted to determine radioactivity bound to the membranes by liquid scintillation counting (2200CA Tri-Carb LSC, Packard Instruments, 50% efficiency or Wallac Trilux 1450 MicroBeta, 40% efficiency, Perkin Elmer).
# Data were expressed as disintegrations per minute (DPMs). […] Ki values were calculated using the Cheng-Prussof equation (1973): […]
# [2] = test system: ovalbumin-sensitized mice; assay: Airway hyperresponsiveness (Penh) and BALF cell counts; assay type: in vivo, mouse; details: for methacholine-induced increase in Penh values: FIG. 21
# Description: Using the method of Hamelmann et al, (2S,3R)—N-2-((3-pyridinyl)methyl)-1-azabicyclo[2.2.2]oct-3-yl)-3,5-difluorobenzamide was evaluated for possible inhibition of airway hyper-responsiveness in mice. Briefly, ovalbumin (OVA)-sensitized animals, 12 animals per group, were challenged by nasal inhalation with aerosolized 5% OVA for 25 min on days 21, 23, and 25. The mice were treated with vehicle or (2S,3R)—N-2-((3-pyridinyl)methyl)-1-azabicyclo[2.2.2]oct-3-yl)-3,5-difluorobenzamide subcutaneously (s.c.) twice daily from day 21 to day 26 or once daily intratracheally (i.t.), preceding ovalbumin aerosol challenge by 30 min on days 21, 23 and 25 as well as methacholine challenge or bronchoalveolar lavage fluids (BALF) harvest on day 26. Dexamethasone, the reference standard, was administered at 3 mg/kg orally (p.o.) once daily 60 min before OVA challenge on day 21, 23 and 25 and 60 min before methacholine provocation or BALF harvest on day 26. Noninvasive measurements of airway responsiveness were performed by using whole body plethysmography, in which increases in enhanced pause (Penh) serve as an index of airway obstruction. Responses to inhaled methacholine were measured and calculated as percentage of respective baseline values. Unpaired Students t-test was used for comparison between the vehicle control and the sham group; one-way ANOVA and Dunnett's post-hoc analyses were applied for comparison between the vehicle control and treated groups. Statistical significance is considered at P<0.05.
# [3] = biological target: T2, human native muscle-type nicotinic receptors (likely α1β1γδ) (Homo sapiens, UniProt P02708+P07510+Q07001); assay: [3H]epibatidine binding, TE-671 membranes
# T2 construct: human native muscle-type nicotinic receptors (likely α1β1γδ); endogenous in cells; host or cells: TE-671
# T2 sequence (P07510 23-517): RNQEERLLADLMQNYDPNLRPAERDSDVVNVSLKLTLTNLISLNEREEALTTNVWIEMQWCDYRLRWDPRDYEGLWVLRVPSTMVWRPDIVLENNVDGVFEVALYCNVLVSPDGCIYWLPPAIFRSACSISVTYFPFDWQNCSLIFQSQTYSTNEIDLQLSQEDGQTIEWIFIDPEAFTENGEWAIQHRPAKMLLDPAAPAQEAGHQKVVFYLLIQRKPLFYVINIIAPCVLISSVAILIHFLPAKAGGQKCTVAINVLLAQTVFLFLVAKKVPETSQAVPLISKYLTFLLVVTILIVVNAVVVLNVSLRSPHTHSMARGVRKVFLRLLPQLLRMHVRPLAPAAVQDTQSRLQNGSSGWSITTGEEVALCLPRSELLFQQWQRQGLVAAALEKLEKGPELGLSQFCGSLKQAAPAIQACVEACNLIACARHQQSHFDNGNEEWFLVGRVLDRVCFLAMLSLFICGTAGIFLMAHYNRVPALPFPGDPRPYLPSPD
# T2 sequence (P11230 24-501, further chain): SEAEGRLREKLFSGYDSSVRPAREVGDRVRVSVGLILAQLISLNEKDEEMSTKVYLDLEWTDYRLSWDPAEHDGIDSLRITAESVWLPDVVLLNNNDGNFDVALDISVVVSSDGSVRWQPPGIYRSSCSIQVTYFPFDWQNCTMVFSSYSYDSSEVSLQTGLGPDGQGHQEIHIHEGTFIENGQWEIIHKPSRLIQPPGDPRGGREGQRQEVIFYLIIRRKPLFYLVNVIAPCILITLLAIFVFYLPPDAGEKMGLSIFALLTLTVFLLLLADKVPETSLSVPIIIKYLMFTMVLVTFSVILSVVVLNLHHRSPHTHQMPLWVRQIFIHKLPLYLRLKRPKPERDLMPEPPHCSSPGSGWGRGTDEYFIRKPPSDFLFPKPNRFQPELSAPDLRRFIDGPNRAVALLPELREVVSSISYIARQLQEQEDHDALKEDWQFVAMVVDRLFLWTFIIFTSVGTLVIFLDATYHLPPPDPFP
# T2 sequence (P02708 21-457): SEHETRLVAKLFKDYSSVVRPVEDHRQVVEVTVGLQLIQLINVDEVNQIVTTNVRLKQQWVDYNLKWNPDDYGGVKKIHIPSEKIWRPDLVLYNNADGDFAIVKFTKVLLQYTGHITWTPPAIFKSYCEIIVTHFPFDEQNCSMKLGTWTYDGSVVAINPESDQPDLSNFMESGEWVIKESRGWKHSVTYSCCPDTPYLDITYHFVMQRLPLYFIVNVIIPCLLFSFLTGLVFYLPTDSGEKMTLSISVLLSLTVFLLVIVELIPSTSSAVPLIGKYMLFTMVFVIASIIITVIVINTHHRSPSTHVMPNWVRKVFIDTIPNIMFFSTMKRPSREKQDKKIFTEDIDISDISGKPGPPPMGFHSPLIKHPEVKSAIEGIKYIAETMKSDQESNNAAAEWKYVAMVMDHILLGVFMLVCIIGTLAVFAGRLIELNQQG
# T2 sequence (Q07001 22-517): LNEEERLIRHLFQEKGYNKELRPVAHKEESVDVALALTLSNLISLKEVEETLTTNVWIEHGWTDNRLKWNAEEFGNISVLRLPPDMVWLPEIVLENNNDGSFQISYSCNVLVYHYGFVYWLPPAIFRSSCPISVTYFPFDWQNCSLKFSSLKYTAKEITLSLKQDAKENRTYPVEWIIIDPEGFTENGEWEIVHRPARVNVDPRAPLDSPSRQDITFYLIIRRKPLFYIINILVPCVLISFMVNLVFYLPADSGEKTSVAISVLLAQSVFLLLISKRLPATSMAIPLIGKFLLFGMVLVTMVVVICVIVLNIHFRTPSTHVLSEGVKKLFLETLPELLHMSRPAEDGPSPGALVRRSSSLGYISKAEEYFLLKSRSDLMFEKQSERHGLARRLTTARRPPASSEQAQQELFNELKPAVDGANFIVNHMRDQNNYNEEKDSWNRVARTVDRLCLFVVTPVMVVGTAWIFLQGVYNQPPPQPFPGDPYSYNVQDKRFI
structure (smiles),measurement,setting,value
O=C(N[C@@H]1C2CCN(CC2)[C@H]1Cc1cccnc1)c1cc(F)cc(F)c1 [Compound A],analgesic effect on CFA-induced thermal hyperalgesia,Sprague-Dawley rats,not associated with any significant analgesic effect
same,Ki,[1],4.12 µM
same,methacholine-induced increase in Penh values,[2]; 10 mg/kg IT qd,significant inhibition
same,monocytes in BALF,[2]; 10 mg/kg SC,reduced
same,methacholine-induced increase in Penh values,"[2]; 0.1, 1, and 10 mg/kg bid s.c.",significant inhibition
same,airway hyper-responsiveness,"[2]; 0.1, 1 and 10 mg/kg bid s.c. and 10 mg/kg i.t., multiple administrations",significant protection against airway hyper-responsiveness
same,total WBC and eosinophils in BALF,[2]; 0.1 and 1 mg/kg SC,significantly reduced
same,lymphocytes in BALF,[2]; 0.1 and 1 mg/kg SC as well as 10 mg/kg IT,reduced
same,eosinophils and white blood cells in BALF,"[2]; multiple administrations, lacks a consistent dose-response relationship",significant reduction
same,Ki,[3],136 µM
